Each block holds one compound with its values, some of them ahead of it. The source made the active and inactive calls.
Assays:
Cysteine protease ATG4B = molecular target: T1, Cysteine protease ATG4B (Homo sapiens, UniProt Q9Y4P1); format: functional;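 note: Fluorescence-based dose-response confirmation assay measuring inhibition of ATG4B activity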
T1 sequence (Q9Y4P1 whole entry): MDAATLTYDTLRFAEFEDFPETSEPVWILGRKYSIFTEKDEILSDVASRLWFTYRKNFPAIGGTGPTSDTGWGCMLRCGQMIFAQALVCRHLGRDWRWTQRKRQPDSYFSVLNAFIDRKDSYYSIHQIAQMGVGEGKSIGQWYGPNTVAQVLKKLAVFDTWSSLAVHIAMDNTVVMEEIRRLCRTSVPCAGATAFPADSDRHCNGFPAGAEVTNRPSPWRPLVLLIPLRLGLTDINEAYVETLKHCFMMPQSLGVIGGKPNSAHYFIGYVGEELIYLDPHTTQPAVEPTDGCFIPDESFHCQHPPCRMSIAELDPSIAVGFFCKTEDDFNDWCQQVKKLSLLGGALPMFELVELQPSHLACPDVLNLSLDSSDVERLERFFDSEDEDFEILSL

Phospholipase A2 = Phospholipase A2 (Homo sapiens, UniProt P04054); format: functional;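 note: confirmatory dose-response counterscreen on phospholipase A2, testing hits that came from an ultra-high-throughput screen for ATG4B inhibitors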
Phospholipase A2, sequence (P04054 whole entry): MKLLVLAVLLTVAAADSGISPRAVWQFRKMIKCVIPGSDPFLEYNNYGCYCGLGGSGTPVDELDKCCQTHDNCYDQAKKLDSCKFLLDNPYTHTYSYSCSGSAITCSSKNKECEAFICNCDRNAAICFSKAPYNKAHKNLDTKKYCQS

[1] = molecular target: Aryl hydrocarbon receptor (Homo sapiens, UniProt P35869); settings: Potency;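 note: confirmatory quantitative high-throughput screen measuring activation of the AhR signaling pathway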
Aryl hydrocarbon receptor, sequence (P35869 whole entry): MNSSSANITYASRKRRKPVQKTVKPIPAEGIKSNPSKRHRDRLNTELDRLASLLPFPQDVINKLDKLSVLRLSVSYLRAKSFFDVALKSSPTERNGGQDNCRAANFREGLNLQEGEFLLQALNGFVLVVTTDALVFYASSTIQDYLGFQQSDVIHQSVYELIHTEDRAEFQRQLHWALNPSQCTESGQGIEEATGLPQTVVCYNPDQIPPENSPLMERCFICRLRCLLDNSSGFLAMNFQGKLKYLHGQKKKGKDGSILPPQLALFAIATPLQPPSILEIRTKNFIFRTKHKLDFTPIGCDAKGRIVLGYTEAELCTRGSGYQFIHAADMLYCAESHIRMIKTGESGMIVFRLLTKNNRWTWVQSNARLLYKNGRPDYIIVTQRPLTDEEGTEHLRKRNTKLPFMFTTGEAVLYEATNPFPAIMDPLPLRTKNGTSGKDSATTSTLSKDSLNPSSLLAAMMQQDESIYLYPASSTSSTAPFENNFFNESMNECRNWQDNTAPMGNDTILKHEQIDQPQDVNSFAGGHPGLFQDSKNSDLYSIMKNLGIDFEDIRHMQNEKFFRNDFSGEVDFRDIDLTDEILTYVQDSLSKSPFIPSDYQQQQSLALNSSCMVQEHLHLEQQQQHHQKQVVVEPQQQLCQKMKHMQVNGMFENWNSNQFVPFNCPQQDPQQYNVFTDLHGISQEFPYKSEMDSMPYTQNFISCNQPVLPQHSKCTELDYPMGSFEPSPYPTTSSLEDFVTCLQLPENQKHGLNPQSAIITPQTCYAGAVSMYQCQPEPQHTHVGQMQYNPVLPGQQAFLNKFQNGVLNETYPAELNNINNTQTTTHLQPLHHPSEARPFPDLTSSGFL

Cytochrome P450 2C19 = Cytochrome P450 2C19 (Homo sapiens, UniProt P33261); assay: Cytochrome panel assay with activity outcomes. Panel member name: p450-cyp2c19 Compounds with AC50 equal or less than 10 uM are considered active; format: functional; settings: read-out: AC50
Cytochrome P450 2C19, sequence (P33261 whole entry): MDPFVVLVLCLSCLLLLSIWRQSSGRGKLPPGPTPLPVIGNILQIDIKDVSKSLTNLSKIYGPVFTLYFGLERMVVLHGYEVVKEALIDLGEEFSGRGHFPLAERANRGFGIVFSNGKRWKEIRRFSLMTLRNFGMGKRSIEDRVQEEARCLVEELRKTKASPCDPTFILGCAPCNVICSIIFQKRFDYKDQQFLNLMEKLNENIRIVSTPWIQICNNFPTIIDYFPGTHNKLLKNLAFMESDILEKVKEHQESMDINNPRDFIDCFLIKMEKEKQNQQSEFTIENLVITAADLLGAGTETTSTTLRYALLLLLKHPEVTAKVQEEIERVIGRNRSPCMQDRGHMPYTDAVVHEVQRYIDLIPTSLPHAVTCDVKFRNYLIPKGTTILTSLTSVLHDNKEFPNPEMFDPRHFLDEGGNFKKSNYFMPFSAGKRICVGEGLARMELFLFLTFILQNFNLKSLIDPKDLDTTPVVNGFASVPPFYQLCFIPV

HeLa = assay: HeLa cell cytotoxicity, dose response, cytotoxicity control for MITF activator project, CellTiter-Glo luminescence, cherry-pick samples (AID 540259); format: functional, cell-based; settings: Homo sapiens
Interleukin-8 [2] = molecular target: T2, Interleukin-8 (Homo sapiens, UniProt P10145); assay: Dose Response confirmation of uHTS small molecule hits for cystic fibrosis induced NFkb Inhibitors in a TNFa-induced IL8 counterscreen.; format: functional; settings: read-out: IC50_Mean
T2 sequence (P10145 whole entry): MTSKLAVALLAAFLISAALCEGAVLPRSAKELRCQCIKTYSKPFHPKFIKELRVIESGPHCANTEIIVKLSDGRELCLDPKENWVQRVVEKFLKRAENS

Interleukin-8 [3] = molecular target: T2, Interleukin-8; assay: Dose Response confirmation of uHTS small molecule hits for cystic fibrosis induced NFkb Inhibitors in a PAF-induced IL8 counterscreen.; format: functional; settings: read-out: IC50_Mean
[4] = molecular target: Dual specificity tyrosine-phosphorylation-regulated kinase 1A (Rattus norvegicus, UniProt Q63470); format: biochemical, Homo sapiens
[5] = molecular target: Protein disulfide-isomerase (Homo sapiens, UniProt P07237); assay: PDI inhibitors, insulin aggregation turbidity, dose response, biochemical, absorbance, cherry-picked samples (AID 602350); format: functional
Protein disulfide-isomerase, sequence (P07237 whole entry, the tested form may be a part): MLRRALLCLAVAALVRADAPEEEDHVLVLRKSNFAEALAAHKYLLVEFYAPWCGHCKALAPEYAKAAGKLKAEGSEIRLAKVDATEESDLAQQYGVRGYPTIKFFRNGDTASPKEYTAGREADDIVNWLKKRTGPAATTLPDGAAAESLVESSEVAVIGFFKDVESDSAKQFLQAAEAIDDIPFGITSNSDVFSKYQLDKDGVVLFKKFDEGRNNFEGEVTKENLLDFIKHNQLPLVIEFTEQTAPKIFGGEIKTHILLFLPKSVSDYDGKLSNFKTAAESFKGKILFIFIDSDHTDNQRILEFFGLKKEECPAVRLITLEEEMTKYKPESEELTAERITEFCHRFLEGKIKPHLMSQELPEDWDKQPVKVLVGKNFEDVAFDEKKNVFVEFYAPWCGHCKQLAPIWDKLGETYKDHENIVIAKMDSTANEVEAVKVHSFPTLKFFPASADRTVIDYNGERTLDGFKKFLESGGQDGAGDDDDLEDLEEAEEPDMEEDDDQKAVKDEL

CHO = assay: cytotoxicity in TLR9-MyD88 CHO cells, dose response, cytotoxicity control for TLR9-MyD88 binding inhibitor project, cell-based, luminescence (AID 588339); format: functional, hamster; settings: Cricetulus griseus;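 note: CHO cells stably coexpressing TLR9 and MyD88 fusions from primary screen; compound exposure lasted 48 hours before viability readout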
Beta Lactamase = Beta Lactamase (Pseudomonas aeruginosa, UniProt Q932Y6); assay: beta-lactamase reporter inhibitor potency, dose response, artefact control for TLR9-MyD88 binding inhibitor project, BLA reporter cells, FRET fluorescence (AID 588341); format: cell-based;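 note: cell based assay in CHO-K1 cells stably expressing beta-lactamase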
Beta Lactamase, sequence (Q932Y6 whole entry): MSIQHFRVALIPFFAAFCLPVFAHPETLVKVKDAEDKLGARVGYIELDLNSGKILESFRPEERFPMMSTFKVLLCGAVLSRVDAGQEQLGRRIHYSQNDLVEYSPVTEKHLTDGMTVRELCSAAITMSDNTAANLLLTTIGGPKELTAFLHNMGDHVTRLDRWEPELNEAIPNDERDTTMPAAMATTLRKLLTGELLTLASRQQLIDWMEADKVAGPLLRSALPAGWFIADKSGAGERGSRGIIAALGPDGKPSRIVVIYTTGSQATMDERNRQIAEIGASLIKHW

[6] = molecular target: Diacylglycerol lipase-beta (Mus musculus, UniProt Q91WC9); assay: Late stage assay provider results from the probe development effort to identify inhibitors of diacylglycerol lipase, beta (DAGLb): fluorescence-based dose-response biochemical gel-based competitive Activity-Based Protein Profiling (ABPP) inhibition of DAGLb in vitro.; format: functional
Diacylglycerol lipase-beta, sequence (Q91WC9 whole entry): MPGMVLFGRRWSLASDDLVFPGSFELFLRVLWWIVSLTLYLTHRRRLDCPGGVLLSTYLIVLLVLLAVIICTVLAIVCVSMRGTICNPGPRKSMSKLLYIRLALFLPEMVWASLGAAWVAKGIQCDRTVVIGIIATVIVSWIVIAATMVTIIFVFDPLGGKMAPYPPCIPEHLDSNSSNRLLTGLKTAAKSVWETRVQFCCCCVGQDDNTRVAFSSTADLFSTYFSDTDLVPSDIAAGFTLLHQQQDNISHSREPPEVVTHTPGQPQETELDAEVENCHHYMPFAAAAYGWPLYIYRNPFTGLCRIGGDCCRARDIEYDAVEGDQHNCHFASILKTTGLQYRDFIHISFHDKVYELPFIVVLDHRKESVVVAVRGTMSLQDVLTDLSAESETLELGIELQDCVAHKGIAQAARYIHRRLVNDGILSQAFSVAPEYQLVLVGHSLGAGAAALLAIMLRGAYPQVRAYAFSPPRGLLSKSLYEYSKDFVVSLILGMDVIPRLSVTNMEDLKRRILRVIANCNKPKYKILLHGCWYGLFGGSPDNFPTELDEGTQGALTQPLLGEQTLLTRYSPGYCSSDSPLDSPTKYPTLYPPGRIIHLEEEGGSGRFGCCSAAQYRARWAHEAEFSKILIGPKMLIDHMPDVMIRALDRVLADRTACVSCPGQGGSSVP

[7] = NIH-3T3 fibroblast cytotoxicity, dose response, cytotoxicity control, cell-based, fluorescence, Alamar Blue, secondary assay (AID 2327); format: functional;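 note: NIH-3T3 mouse fibroblasts cultured with fluconazole at 8 µg/mL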
[8] = molecular target: T3, RNA-binding protein pos-1 (Caenorhabditis elegans, UniProt G5EF15); assay: inhibitors of POS-1/mex-3 RNA binding, dose response, biochemical, fluorescence polarization (AID 1964);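 note: purified POS-1 fused to maltose binding protein made in E. coli; potency of compounds blocking POS-1 binding to fluorescent RNA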
T3 sequence (G5EF15 whole entry): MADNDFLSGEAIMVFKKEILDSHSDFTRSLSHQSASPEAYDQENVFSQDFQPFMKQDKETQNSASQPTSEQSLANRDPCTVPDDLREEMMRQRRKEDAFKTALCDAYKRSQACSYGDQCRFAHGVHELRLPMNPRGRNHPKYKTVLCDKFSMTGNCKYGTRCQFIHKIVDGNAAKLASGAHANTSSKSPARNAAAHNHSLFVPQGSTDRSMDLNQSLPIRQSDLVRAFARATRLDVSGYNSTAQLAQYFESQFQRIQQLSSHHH

[9] = test system: Streptococcus sp. 'group A'; assay: growth inhibition of control SK(-) GAS strain, dose response, counter-screen for streptokinase expression inhibitor project, luminescence, kanamycin, BacTiterGlo, confirmation (AID 1900); format: functional, organism-based
cells [10] = format: functional, cell-based
[11] = C. albicans growth with fluconazole, confirmation, fluorescence, retest (AID 2467); format: functional, cell-based
[12] = inhibitors of intracellular T. cruzi replication, confirmation, NIH3T3 host cells, beta-gal luminescence (AID 2044); format: functional, cell-based;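 note: intracellular parasites grown in NIH/3T3 mouse fibroblasts as host cells; luminescent beta-galactosidase reporter signal from transgenic T. cruzi replicating inside host cells; inhibitors lower the luminescence signal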
cells [13] = format: functional, cell-based; remark: listed apart in the source
[14] = cytotoxicity toward NIH3T3 fibroblasts, dose response, counter-screen, cell-based, ATP luminescence, mouse fibroblasts (AID 2010); format: functional;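 note: cells exposed to compound for about 90 hours before reading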
Streptococcus = assay: Group A Streptococcus viability loss, dose response, counter-screen for streptokinase expression inhibitor project, luminescence, BacTiterGlo (AID 1915); format: functional, organism-based;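 note: potency for reduction of bacterial viability or growth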
[15] = cytotoxicity in HEK-293T cells, dose response, cytotoxicity control for TCR NF-kB inhibitor project, luminescence, T-cell screen hits (AID 489026); format: functional, cell-based;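 note: cells exposed to compound about 14 hours before the viability readout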
[16] = molecular target: Heat shock protein HSP 90-alpha (Homo sapiens, UniProt P07900); format: functional, organism-based
Insulin-degrading enzyme [17] = molecular target: T4, Insulin-degrading enzyme (Homo sapiens, UniProt P14735); assay: activators of recombinant IDE enzyme, dose response, counter-screen for IDE activator project, biochemical, fluorescence polarization (AID 588681)
T4 sequence (P14735 whole entry): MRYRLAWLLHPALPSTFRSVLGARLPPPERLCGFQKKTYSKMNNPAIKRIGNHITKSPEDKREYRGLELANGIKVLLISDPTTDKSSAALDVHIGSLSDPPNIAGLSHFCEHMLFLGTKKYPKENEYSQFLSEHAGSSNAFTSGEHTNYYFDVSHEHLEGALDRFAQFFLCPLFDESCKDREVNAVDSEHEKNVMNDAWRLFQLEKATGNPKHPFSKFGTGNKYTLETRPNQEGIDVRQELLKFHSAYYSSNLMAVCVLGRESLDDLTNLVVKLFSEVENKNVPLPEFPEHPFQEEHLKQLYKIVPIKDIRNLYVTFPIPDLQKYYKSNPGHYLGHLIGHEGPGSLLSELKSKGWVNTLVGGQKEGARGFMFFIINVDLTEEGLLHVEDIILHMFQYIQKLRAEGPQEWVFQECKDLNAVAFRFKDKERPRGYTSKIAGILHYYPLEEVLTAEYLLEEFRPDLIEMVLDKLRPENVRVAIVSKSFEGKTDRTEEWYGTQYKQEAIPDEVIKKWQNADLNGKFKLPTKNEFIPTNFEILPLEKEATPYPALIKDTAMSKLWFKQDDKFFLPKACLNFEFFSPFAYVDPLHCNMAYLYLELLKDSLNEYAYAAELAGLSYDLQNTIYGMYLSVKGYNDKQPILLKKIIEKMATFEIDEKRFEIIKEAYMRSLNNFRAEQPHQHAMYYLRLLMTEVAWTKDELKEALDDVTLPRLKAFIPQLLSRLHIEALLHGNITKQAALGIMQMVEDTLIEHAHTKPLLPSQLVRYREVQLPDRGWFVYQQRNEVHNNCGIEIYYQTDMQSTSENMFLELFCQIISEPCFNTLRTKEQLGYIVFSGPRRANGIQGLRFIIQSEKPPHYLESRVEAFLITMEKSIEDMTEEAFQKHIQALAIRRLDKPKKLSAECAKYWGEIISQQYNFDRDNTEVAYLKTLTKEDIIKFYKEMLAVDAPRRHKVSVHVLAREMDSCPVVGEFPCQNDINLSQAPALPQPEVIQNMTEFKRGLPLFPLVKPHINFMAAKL

Insulin-degrading enzyme [18] = molecular target: T4, Insulin-degrading enzyme; assay: activators of endogenous IDE in HEK cells, dose response, cell-based, fluorescence polarization (AID 588439); format: functional
HEK293 [19] = assay: HEK cell cytotoxicity by LDH release, dose response, cytotoxicity control for IDE activator project, fluorescence, HEK cells (AID 588440); format: functional, cell-based; settings: Homo sapiens;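 note: cytotoxicity by LDH release measuring loss of membrane integrity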
HEK293 [20] = assay: optical interference in Abeta FP readout, dose response, artefact control for IDE activator project, biochemical, fluorescence polarization (AID 588442); format: functional, cell-based; settings: Homo sapiens
[21] = molecular target: Voltage-gated inwardly rectifying potassium channel KCNH2 (Homo sapiens, UniProt Q12809); settings: Potency;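 note: confirmatory quantitative high-throughput screen measuring inhibition of hERG channel activity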
Voltage-gated inwardly rectifying potassium channel KCNH2, sequence (Q12809 whole entry): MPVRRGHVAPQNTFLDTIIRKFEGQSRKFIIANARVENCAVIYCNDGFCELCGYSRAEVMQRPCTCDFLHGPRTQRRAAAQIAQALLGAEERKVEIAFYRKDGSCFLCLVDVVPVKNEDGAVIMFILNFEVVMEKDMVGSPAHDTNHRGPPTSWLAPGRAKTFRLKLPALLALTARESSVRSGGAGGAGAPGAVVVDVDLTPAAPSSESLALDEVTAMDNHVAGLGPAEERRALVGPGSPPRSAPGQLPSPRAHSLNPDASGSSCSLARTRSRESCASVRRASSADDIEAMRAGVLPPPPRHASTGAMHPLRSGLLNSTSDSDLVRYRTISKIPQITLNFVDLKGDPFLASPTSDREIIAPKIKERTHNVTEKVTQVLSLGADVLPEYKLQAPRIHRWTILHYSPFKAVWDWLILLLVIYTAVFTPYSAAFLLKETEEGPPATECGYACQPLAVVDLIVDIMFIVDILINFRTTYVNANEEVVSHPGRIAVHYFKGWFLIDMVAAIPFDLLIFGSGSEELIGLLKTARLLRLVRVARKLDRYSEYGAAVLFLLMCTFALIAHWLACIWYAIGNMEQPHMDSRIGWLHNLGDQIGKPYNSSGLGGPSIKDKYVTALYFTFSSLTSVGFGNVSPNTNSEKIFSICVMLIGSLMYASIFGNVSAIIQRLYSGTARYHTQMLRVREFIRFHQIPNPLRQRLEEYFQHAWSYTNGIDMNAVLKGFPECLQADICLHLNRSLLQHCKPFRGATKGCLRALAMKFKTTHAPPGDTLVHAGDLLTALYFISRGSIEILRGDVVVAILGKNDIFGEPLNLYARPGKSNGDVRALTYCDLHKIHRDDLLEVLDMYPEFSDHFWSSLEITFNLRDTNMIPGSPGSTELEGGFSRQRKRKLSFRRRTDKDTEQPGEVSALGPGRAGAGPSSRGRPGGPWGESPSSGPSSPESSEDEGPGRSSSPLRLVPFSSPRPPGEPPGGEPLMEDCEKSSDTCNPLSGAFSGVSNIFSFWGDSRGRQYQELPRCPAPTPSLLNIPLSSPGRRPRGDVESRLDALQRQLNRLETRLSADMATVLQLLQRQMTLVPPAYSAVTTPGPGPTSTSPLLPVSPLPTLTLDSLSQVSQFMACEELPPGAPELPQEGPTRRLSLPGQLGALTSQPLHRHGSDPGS

- IC50 (Cysteine protease ATG4B): 14.8 µM (active)
- IC50 (Phospholipase A2): 11 µM (active)
Structure (SMILES): CC1(C)C2CCC1(C)C1(C2)NC(=O)c2ccccc2O1 (stereo not drawn)

Structure (SMILES): CCCCOCC1CO1 (stereo not drawn)
- AC50 [1]: 56.2 µM (inconclusive)

Structure (SMILES): O=C(Nc1cccc2[nH]ncc12)c1ccc(F)cc1
- AC50 (Cytochrome P450 2C19): 14.1 µM (inconclusive)
- AC50 (HeLa): 52.8 µM (active)
- IC50 (Interleukin-8 [2]): > 79 µM (inactive)
- IC50 (Interleukin-8 [3]): 13.8 µM (inactive)

- AC50 [4]: 0.195 µM (active)
Structure (SMILES): NC1=NC(=O)/C(=C\c2ccc(-c3ccc(Cl)cc3)o2)S1

Structure (SMILES): C[C@@H]1O[C@@H](Oc2c(-c3ccc(O)c(O)c3)oc3cc(O)cc(O)c3c2=O)[C@H](O)[C@H](O)[C@H]1O
- AC50 [5]: 5.59 µM (active)

Structure (SMILES): O=[N+]([O-])c1ccc(-c2ccc(/C=N/Nc3nc(NCc4ccccc4)nc(N4CCOCC4)n3)o2)cc1
- IC50 (CHO): 15.9 µM (inactive)
- IC50 (Beta Lactamase): 4.69 µM (active)

- IC50 [6]: 0.058 µM (active)
Structure (SMILES): O=C(N1CCCCC1Cc1ccccc1)n1cc(-c2ccc(-c3ccccc3C(F)(F)F)cc2)nn1 (stereo not drawn)

Structure (SMILES): O=C(N/N=C\c1c(O)ccc2ccccc12)c1cncc(Br)c1
- EC50 [7]: 8.52 µM (inconclusive)
- EC50 [8]: > 300 µM (not active)
- EC50 [9]: 1.4 µM (active)
- EC50 (cells [10]): 10.3 µM (active)
- EC50 [11]: 0.342 µM (active)
- EC50 [12]: 0.792 µM (active)
- EC50 (cells [13]): 86.8 µM (active)
- EC50 [14]: 7.07 µM (active)
- EC50 (Streptococcus): 3.59 µM (active)
- IC50 [15]: > 80 µM (inactive)
- AC50 [16]: 4.06 µM (active)
- EC50 (Insulin-degrading enzyme [17]): > 54.7 µM (inactive)
- EC50 (Insulin-degrading enzyme [18]): > 54.7 µM (inactive)
- IC50 (HEK293 [19]): > 89.3 µM (inactive)
- EC50 (HEK293 [20]): 12.4 µM (inactive)

Structure (SMILES): CCOC(=O)C1=C(C)NC(C)=C(C(=O)OC)C1c1cccc(Cl)c1Cl (stereo not drawn) [FELODIPINE]
- AC50 [21]: 20 µM (inconclusive)

Source: ChEMBL document CHEMBL1201862, “PubChem BioAssay data set” (2004)
